Data taken from US20120225909A1, “INDAZOLE ANALOG” (priority 2009, published 2012).

Assays:
[1] = molecular target: T1, human β2-adrenergic receptor (Homo sapiens, UniProt P07550); assay: Test Case 3-B: human β2-adrenergic receptor agonist activity; format: cell-based; conditions: read-out: β2 receptor I.A.
T1 construct: expressed in transfected cells; host or cells: CHO (Chinese hamster ovary) cells, pcDNA3
Protocol: Measurement of Human β2-Adrenergic Receptor Agonist Activity
The human β2-adrenergic receptor agonist activity is measured by the same method as in Test Case 1-B using CHO (Chinese hamster ovary) cells transfected by a human β2 gene inserted in pcDNA3 (Invitrogen).

[2] = tested on: pentobarbital-anesthetized rats; assay: Test Case 9: effects on the blood pressure and heart rate in pentobarbital-anesthetized rats; format: in vivo, rat; conditions: anesthetized male SD rats; 3 mg/kg intravenous over 30 seconds; maximum change, mean±standard deviation
Protocol: Effects on the blood pressure and heart rate in pentobarbital-anesthetized rats
The blood pressure and heart rate of rats under pentobarbital anesthesia are measured, and the effects of rapid intravenous administration of the test compound on the blood pressure and heart rate can be studied. After anesthetizing male SD rats (Japan SLC) by intraperitoneal administration of 50 mg/kg of pentobarbital sodium (Tokyo Chemical Industry Co., Ltd.), 25 mg/kg of pentobarbital sodium is administered subcutaneously as maintenance anesthesia. The left femoral vein is exposed and stripped, and a SP10 polyethylene tube filled with saline (connected to a three-way stopcock via a ¼ venous needle) is inserted and left in place in the vein.
The inside of the left thigh is cut, and the femoral artery is exposed and stripped. A polyethylene tube filled with heparinized physiological saline solution (SP31, connected to a three-way stopcock via a Terumo injection needle 22G) is inserted and connected to a pressure transducer. The blood pressure is measured from the pressure transducer via a strain pressure amplifier (AP-641G, Nihon Kohden). The heart rate is measured with the pulse wave of the blood pressure as a trigger via a heart rate counter (AT-601G, Nihon Kohden). The blood pressure, mean blood pressure, and heart rate are output to a recorder and recorded. Furthermore, the mean blood pressure is recorded via the strain pressure amplifier (AP-641G) using the formula {[…]}.
Specifically, 3 mg/mL of test compound is administered rapidly at a volume of 1 mL/kg. The relative value (%) of the values at each point in time versus the mean blood pressure and heart rate before beginning administration are determined for each individual, and the mean±standard deviation of the relative value (%) at the time of the maximum change in each parameter is determined.

T1 sequence (P07550 whole entry): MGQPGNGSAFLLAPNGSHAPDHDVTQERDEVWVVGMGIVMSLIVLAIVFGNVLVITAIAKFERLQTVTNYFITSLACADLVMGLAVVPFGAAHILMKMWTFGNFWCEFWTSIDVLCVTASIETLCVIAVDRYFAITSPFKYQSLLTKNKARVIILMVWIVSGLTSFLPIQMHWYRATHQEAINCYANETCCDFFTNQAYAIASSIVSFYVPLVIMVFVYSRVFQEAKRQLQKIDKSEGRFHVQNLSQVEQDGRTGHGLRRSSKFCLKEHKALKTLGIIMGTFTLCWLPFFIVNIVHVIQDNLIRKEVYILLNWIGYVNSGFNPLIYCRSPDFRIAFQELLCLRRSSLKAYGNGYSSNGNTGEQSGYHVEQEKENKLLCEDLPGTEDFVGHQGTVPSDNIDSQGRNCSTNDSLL

Compound | Emax [1] | increase in MBP (%) [2]
Cc1n[nH]c2cc(OCCNC[C@H](O)c3cccc(NS(=O)(=O)C4CCC4)c3)ccc12 [ex3, (R)—N-(3-(1-hydroxy-2-(2-(3-methylindazol-6-yloxy)ethylamino)ethyl)phenyl)cyclobutanesulfonamide] | 1% | 2.0 ± 1.6%
O=S(=O)(Nc1cccc([C@@H](O)CNCCOc2ccc3c(OC(F)F)n[nH]c3c2)c1)C1CC1 [ex4, (R)—N-(3-(2-(2-(3-(difluoromethoxy)-indazol-6-yloxy)ethylamino)-1-hydroxyethyl)phenyl)cyclopropanesulfonamide] | 1% | 2.4 ± 2.2%
Cc1n[nH]c2cc(OCCNC[C@H](O)c3cccc(NS(=O)(=O)c4ccccc4F)c3)ccc12 [ex235, (R)-2-fluoro-N-(3-(1-hydroxy-2-(2-(3-methylindazol-6-yloxy)ethylamino)ethyl)phenyl)benzenesulfonamide] | 2% | 3.4 ± 1.0%
